{
  "source": "paper PMC7360687",
  "about": "“The Regulator PltZ Regulates a Putative ABC Transporter System PltIJKNOP of Pseudomonas aeruginosa ATCC 27853 in Response to the Antimicrobial 2,4-Diacetylphloroglucinol” (Frontiers in Microbiology, 2020)",
  "target": "T1, PltZ",
  "T1 construct": "full gene cloned in pET-28b-derived vector, E. coli BL21 (DE3), Ni-NTA purified (His tag implied)",
  "assay": "isothermal titration calorimetry",
  "design": "species or system Pseudomonas aeruginosa",
  "conditions": "25 °C; 20 mM Tris pH 8.0, 100 mM NaCl; independent binding model; read-out: binding constant",
  "data": [
    {"smiles": "CC(=O)c1c(O)cc(O)c(C(C)=O)c1O", "note": "[2,4-diacetylphloroglucinol]", "values": [
      {"measurement": "Kd", "value": "~190", "unit": "nM"}
    ]}
  ]
}
